Measurements: PubChem BioAssay (NCI)
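GI50 = concentration required for 50% inhibition of growth. TGI marks complete inhibition of growth.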

Key:
Test in all cases: NCI-60 cell line screen, 384-well format
SN12C renal = test system: SN12C renal
HL-60(TB) leukemia = test system: HL-60(TB) leukemia
SR leukemia = test system: SR leukemia
K-562 leukemia = test system: K-562 leukemia
MDA-MB-231 breast = test system: MDA-MB-231 breast
MCF7 breast = test system: MCF7 breast
PC-3 prostate = test system: PC-3 prostate
OVCAR-5 ovarian = test system: OVCAR-5 ovarian
HT29 colon = test system: HT29 colon
IGROV1 ovarian = test system: IGROV1 ovarian
BT-549 breast = test system: BT-549 breast
NCI/ADR-RES ovarian = test system: NCI/ADR-RES ovarian
EKVX NSCLC = test system: EKVX NSCLC
MOLT-4 leukemia = test system: MOLT-4 leukemia
DU-145 prostate = test system: DU-145 prostate
CCRF-CEM leukemia = test system: CCRF-CEM leukemia
HCT-116 colon = test system: HCT-116 colon
U251 glioblastoma = test system: U251 glioblastoma
CAKI-1 renal = test system: CAKI-1 renal
UO-31 renal = test system: UO-31 renal
SW-620 colon = test system: SW-620 colon
RPMI-8226 leukemia = test system: RPMI-8226 leukemia
A549 NSCLC = test system: A549 NSCLC
SK-MEL-2 melanoma = test system: SK-MEL-2 melanoma
SF-539 CNS = test system: SF-539 CNS
T-47D breast = test system: T-47D breast
NCI-H226 lung = test system: NCI-H226 lung
HCT-15 colon = test system: HCT-15 colon
OVCAR-3 ovarian = test system: OVCAR-3 ovarian
SNB-75 CNS = test system: SNB-75 CNS
NCI-H522 lung = test system: NCI-H522 lung
NCI-H322M lung = test system: NCI-H322M lung
UACC-257 melanoma = test system: UACC-257 melanoma
ACHN renal = test system: ACHN renal
SF-295 CNS = test system: SF-295 CNS
HS 578T breast = test system: HS 578T breast
NCI-H460 NSCLC = test system: NCI-H460 NSCLC
MALME-3M melanoma = test system: MALME-3M melanoma
OVCAR-8 ovarian = test system: OVCAR-8 ovarian
LOX IMVI melanoma = test system: LOX IMVI melanoma
TK-10 renal = test system: TK-10 renal
MDA-MB-435 melanoma = test system: MDA-MB-435 melanoma
SK-MEL-5 melanoma = test system: SK-MEL-5 melanoma
SK-OV-3 ovarian = test system: SK-OV-3 ovarian
NCI-H23 lung = test system: NCI-H23 lung
OVCAR-4 ovarian = test system: OVCAR-4 ovarian
786-0 renal = test system: 786-0 renal

CC(C)(O)c1cc(Nc2cc(Oc3cn(C4CC4)nc3C3CCOCC3)ccn2)ccn1
GI50 (SN12C renal): > 82 µM
TGI (SN12C renal): > 100 µM
GI50 (HL-60(TB) leukemia): 15.5 µM
TGI (HL-60(TB) leukemia): 29.1 µM
GI50 (SR leukemia): 24.8 µM
TGI (SR leukemia): > 75.9 µM
GI50 (K-562 leukemia): 26.3 µM
TGI (K-562 leukemia): > 100 µM
GI50 (MDA-MB-231 breast): > 89 µM
TGI (MDA-MB-231 breast): > 100 µM
GI50 (MCF7 breast): 29.9 µM
TGI (MCF7 breast): > 100 µM
GI50 (PC-3 prostate): 76.1 µM
TGI (PC-3 prostate): > 100 µM
GI50 (OVCAR-5 ovarian): > 100 µM
TGI (OVCAR-5 ovarian): > 100 µM
GI50 (HT29 colon): 54.1 µM
TGI (HT29 colon): > 100 µM
GI50 (IGROV1 ovarian): > 100 µM
TGI (IGROV1 ovarian): > 100 µM
GI50 (BT-549 breast): 38.7 µM
TGI (BT-549 breast): > 100 µM
GI50 (NCI/ADR-RES ovarian): > 100 µM
TGI (NCI/ADR-RES ovarian): > 100 µM
GI50 (EKVX NSCLC): 51.6 µM
TGI (EKVX NSCLC): > 100 µM
GI50 (MOLT-4 leukemia): 42.7 µM
TGI (MOLT-4 leukemia): > 100 µM
GI50 (DU-145 prostate): > 100 µM
TGI (DU-145 prostate): > 100 µM
GI50 (CCRF-CEM leukemia): 46.7 µM
TGI (CCRF-CEM leukemia): > 100 µM
GI50 (HCT-116 colon): 46.6 µM
TGI (HCT-116 colon): > 100 µM
GI50 (U251 glioblastoma): > 100 µM
TGI (U251 glioblastoma): > 100 µM
GI50 (CAKI-1 renal): 68.1 µM
TGI (CAKI-1 renal): > 100 µM
GI50 (UO-31 renal): > 100 µM
TGI (UO-31 renal): > 100 µM
GI50 (SW-620 colon): > 91.7 µM
TGI (SW-620 colon): > 100 µM
GI50 (RPMI-8226 leukemia): 45.5 µM
TGI (RPMI-8226 leukemia): > 91 µM
GI50 (A549 NSCLC): 89.6 µM
TGI (A549 NSCLC): > 100 µM
GI50 (SK-MEL-2 melanoma): > 100 µM
TGI (SK-MEL-2 melanoma): > 100 µM
GI50 (SF-539 CNS): > 100 µM
TGI (SF-539 CNS): > 100 µM
GI50 (T-47D breast): 32.6 µM
TGI (T-47D breast): > 100 µM
GI50 (NCI-H226 lung): > 93.3 µM
TGI (NCI-H226 lung): > 100 µM
GI50 (HCT-15 colon): > 100 µM
TGI (HCT-15 colon): > 100 µM
GI50 (OVCAR-3 ovarian): 52.8 µM
TGI (OVCAR-3 ovarian): > 100 µM
GI50 (SNB-75 CNS): > 91.6 µM
TGI (SNB-75 CNS): > 100 µM
GI50 (NCI-H522 lung): > 68.6 µM
TGI (NCI-H522 lung): > 100 µM
GI50 (NCI-H322M lung): > 100 µM
TGI (NCI-H322M lung): > 100 µM
GI50 (UACC-257 melanoma): 45 µM
TGI (UACC-257 melanoma): > 100 µM
GI50 (ACHN renal): > 100 µM
TGI (ACHN renal): > 100 µM
GI50 (SF-295 CNS): > 90 µM
TGI (SF-295 CNS): > 100 µM
GI50 (HS 578T breast): 37.7 µM
TGI (HS 578T breast): > 100 µM
GI50 (NCI-H460 NSCLC): 38.8 µM
TGI (NCI-H460 NSCLC): > 100 µM
GI50 (MALME-3M melanoma): > 77.1 µM
TGI (MALME-3M melanoma): > 100 µM
GI50 (OVCAR-8 ovarian): > 100 µM
TGI (OVCAR-8 ovarian): > 100 µM
GI50 (LOX IMVI melanoma): 24.9 µM
TGI (LOX IMVI melanoma): 84.9 µM
GI50 (TK-10 renal): 67.2 µM
TGI (TK-10 renal): > 100 µM
GI50 (MDA-MB-435 melanoma): > 100 µM
TGI (MDA-MB-435 melanoma): > 100 µM
GI50 (SK-MEL-5 melanoma): 16.4 µM
TGI (SK-MEL-5 melanoma): > 100 µM
GI50 (SK-OV-3 ovarian): 85.1 µM
TGI (SK-OV-3 ovarian): > 100 µM
GI50 (NCI-H23 lung): 23.1 µM
TGI (NCI-H23 lung): > 100 µM
GI50 (OVCAR-4 ovarian): > 100 µM
TGI (OVCAR-4 ovarian): > 100 µM
GI50 ([…]-0 renal): > 72.6 µM
TGI (786-0 renal): > 100 µM
